Data reported in article PMC12748266, “Testing antimicrobial peptides inhibiting protein synthesis in living E. coli and K. pneumoniae using bio-orthogonal non-canonical amino-acid tagging” (Frontiers in Microbiology, 2025).
Converted amounts (≈) assume the structure as drawn. No end group written: not given here.

Tests used:
E. coli ATCC 25922 [1] = assay: Post-antibiotic effect (PAE), growth kinetics after washout; type: cell-based, Escherichia coli; conditions: 30 min treatment at MIC
Description: An overnight culture of E. coli ATCC 25922, prepared as described above, was diluted to a final concentration of 5 × 10^6 CFU/mL and then incubated at 37 °C for 30 min in the presence or absence of each peptide or antibiotic at various concentrations, with a final volume of 1 mL. To measure the post-antibiotic effect (PAE) of antimicrobials, the compounds were removed from the supernatant by centrifugation (16,000 × g for 5 min) and bacteria were washed and resuspended in 1 mL of fresh supplemented MHB medium, to promote faster growth visible as increased absorbance. 200 μL of each sample was then transferred to a 96-well round-bottom microplate (Sarstedt, Milan, Italy), which was then placed in a Nanoquant Infinite-M200Pro plate reader with stable temperature at 37 °C. Each sample was surrounded by water-filled wells to reduce its own evaporation. Optical density at 600 nm was then recorded for each sample every hour for up to 18 h. PAE was calculated according to [Holfeld et al. (2018)] as the difference between the time needed for a cell culture incubated with an antibiotic substance to reach half-maximum absorbance of the control culture and the time that the control culture needed to reach half-maximum absorbance of the stationary phase. According to this definition, the PAE of each compound (expressed as time) was calculated based on the OD₆₀₀ value of its respective replicate, which corresponded to half of the maximum absorbance reached by the control culture in the stationary phase (at 18 h). The mean PAE values (PAE in hours) of each compound, were obtained by averaging the times from the three independent experiments.

E. coli ATCC 25922 [2] = assay: BONCAT: HPG incorporation into newly synthesized proteins, flow cytometry; type: cell-based, Escherichia coli; conditions: compound at MIC; for Fluorescence Intensity (% of Control): 10 min pre-incubation then 30 min HPG, untreated = 100%, mean, n ≥ 3; for Decrease in fluorescence compared to untreated bacteria: 40 min total incubation (10 min + 30 min HPG)
Description: We used a modified protocol from [Lindivat et al. (2020)]. Briefly, overnight cultures of E. coli ATCC 25922 or K. pneumoniae ATCC 700603, prepared as described above, were diluted to a final concentration of 5×10^6 CFU/mL and allowed to adjust for 30 min at 37 °C. The culture was then incubated at 37 °C in the dark for 10 or 30 min in the presence or absence of each peptide or antibiotic at various concentrations, with a final volume of 1 mL. At this point, only in certain specified experimental assays, the compounds were removed from the supernatant by centrifugation (16,000 × g for 5 min) and bacteria were washed and resuspended in fresh supplemented M9 medium. Then, 32 μL of a 500 μM homopropargylglycine (HPG) solution were added to each sample, resulting in a final concentration of 16 μM in a finale volume of 1 mL. Also included in each assay were two untreated controls containing only bacteria and bacteria treated with 16 μM HPG alone, respectively. All samples were then incubated at 37 °C in the dark for 30 min. After incubation, samples were washed once with 1X filtered Phosphate Buffered Saline (PBS) (centrifuged at 16,000 x g for 5 min) and resuspended in PBS. After washing, samples were fixed with formaldehyde (Sigma Aldrich, USA) to a final concentration of 3% in 1 mL for 1 h at 25 °C. Subsequently, the samples were centrifuged at 16,000 x g for 5 min and resuspended in 1 mL of PBS. If not analysed immediately, the fixed samples were stored at 4 °C prior to performing the click chemistry reaction. Samples were centrifugated at 16,000 x g for 5 min and bacteria cells were dehydrated by ethanol that was added sequentially to achieve a final concentration of 50% (v/v) (3 min of incubation), 80% (v/v) (3 min of incubation), and 95% (v/v) (3 min of incubation). After dehydration, the samples were centrifugated (16,000 × g, 5 min) and resuspended in PBS. For cell analysis by SDS-PAGE, the following variations were implemented: bacterial cells were diluted in supplemented M9 medium to a final density of ~ 1 × 10^9 CFU/mL, and HPG was added to the samples at a final concentration of 160 μM. Bacteria were incubated with HPG for 0, 15, 30, 60, or 120 min at 37 °C in the dark.
The click reaction was carried out according to [Rostovtsev et al. (2002)]. 15 μL of a pre-mix solution (prepared as described above) were added to each sample containing fixed bacteria that had incorporated HPG (30 μL of pre-mix solution in case of samples prepared for SDS-PAGE analysis), resulting in the following final concentrations in each sample: 0.1 mM copper sulfate, 0.5 mM Tris (3-hydroxypropyltriazolylmethyl)amine (THPTA), and 2.5 μM Alexa Fluor azide 488. Additionally, 50 μL of freshly prepared 100 mM sodium ascorbate and 50 μL of 100 mM aminoguanidine were added (100 μL in case of samples prepared for SDS-PAGE analysis), bringing the final volume to 1 mL. The samples were gently inverted once to mix and incubated for 30 min in the dark at 25 °C. Finally, each sample was washed with PBS once (centrifuged at 16,000 × g for 5 min) and resuspended in 1 mL PBS.
An overnight culture of E. coli ATCC 25922, or of K. pneumoniae ATCC 700603, prepared as described above, was diluted to a final concentration of 5 × 10^6 CFU/mL and allowed to adjust for 30 min at 37 °C under shaking. Membrane permeabilization of bacteria was then assessed by incubating bacteria at 37 °C, in a final volume of 1 mL, with varying concentrations of each peptide or antibiotic used for the BONCAT assay. 5 min before the ending of the selected incubation time (40 min), propidium iodide probe was added to the samples to a final concentration of 10 μg/mL before analysis using a flow cytometer. A positive control consisted of E. coli cells dehydrated with ethanol (as described above), while untreated cells were used as negative control. The fluorescence of untreated cells was used to establish the gating for positive PI-stained cells. […]

[3] = tested on: K. pneumoniae ATCC 700603; assay: microbe, parasite or virus in culture; type: cell-based, Klebsiella pneumoniae; conditions: for MIC: 18 h, 37 °C, mode of at least three experiments; for MIC for K. pneumoniae relative to E. coli: supplemented M9, 5 × 10^6 cells/mL
Description: […] […] Serially two-fold dilution (1:1) were performed across subsequent wells to a final volume of 50 μL. […] […] The plates were sealed with parafilm to minimize evaporation and incubated at 37 °C for 18 h. The minimum inhibitory concentration (MIC) was visually determined as the lowest peptide concentration in a well with no visible bacterial growth. Data are reported as the mode of at least three independent experiments.

[4] = OD600 every hour for 18 h in MHB, mean ± SD, n = 3

Molecule | PAE (E. coli ATCC 25922 [1]; [4]) | Fluorescence Intensity (% of Control) (E. coli ATCC 25922 [2]) | MIC ([3]; Mueller Hinton, 2,5x10^5 CFU/mL) | MIC for K. pneumoniae relative to E. coli [3] | MIC ([3]; supplemented M9 medium, 5 × 10^6 CFU/mL, visual) | Decrease in fluorescence compared to untreated bacteria (E. coli ATCC 25922 [2]) | MIC ([3]; Klebsiella pneumoniae, ATCC700603, supplemented M9 medium, 5 × 10^6 CFU/mL, visual) | PAE (E. coli ATCC 25922 [1])
RRIRPRPPRLPRPRPR [Bac7(1–16)] | 1.7 ± 0.9 h | 18 % of Control | 4 µM | 4 fold | 4 µM | – | – | –
CO[C@H]1/C=C/O[C@@]2(C)Oc3c(C)c(O)c4c(O)c(c(/C=N/N5CCN(C)CC5)c(O)c4c3C2=O)NC(=O)/C(C)=C\C=C\[C@H](C)[C@H](O)[C@@H](C)[C@@H](O)[C@@H](C)[C@H](OC(C)=O)[C@@H]1C [RIF, Rifampicin] | 1.6 ± 1.1 h | 102 % of Control | – | – | – | did not affect fluorescence intensity | 16 µM (≈ 13.2 µg/mL) | –
RRIRPRPPRLPRPRPRPLPFPRPGPRPIPRPLPFP [Bac7(1–35)] | 2.9 ± 0.5 h | 14 % of Control | – | 4 fold | – | – | – | 3 h
O=C(N[C@H](CO)[C@H](O)c1ccc([N+](=O)[O-])cc1)C(Cl)Cl [CHL, Chloramphenicol] | 0.6 ± 1.2 h | 20 % of Control | – | – | – | 80% | – | about half an hour
